# Test results from ChEMBL document CHEMBL4627275, “Inhibition of cholesteryl ester synthesis by polyacetylenes from Atractylodes rhizome” (Bioorg Med Chem Lett, 2020).
# Active and inactive are the calls of the source. No cut-off for these calls is given here.
# Columns and labels:
# [1] = target: T1, Sterol O-acyltransferase 2 (Homo sapiens, UniProt O75908); experiment: Inhibition of human SOAT2-mediated [14C]Cholesterol ester biosynthesis in CHO microsomal fraction after 5 mins in presence of [1-14C]oleoyl-CoA by TLC analysis
# T1 sequence (O75908 whole entry): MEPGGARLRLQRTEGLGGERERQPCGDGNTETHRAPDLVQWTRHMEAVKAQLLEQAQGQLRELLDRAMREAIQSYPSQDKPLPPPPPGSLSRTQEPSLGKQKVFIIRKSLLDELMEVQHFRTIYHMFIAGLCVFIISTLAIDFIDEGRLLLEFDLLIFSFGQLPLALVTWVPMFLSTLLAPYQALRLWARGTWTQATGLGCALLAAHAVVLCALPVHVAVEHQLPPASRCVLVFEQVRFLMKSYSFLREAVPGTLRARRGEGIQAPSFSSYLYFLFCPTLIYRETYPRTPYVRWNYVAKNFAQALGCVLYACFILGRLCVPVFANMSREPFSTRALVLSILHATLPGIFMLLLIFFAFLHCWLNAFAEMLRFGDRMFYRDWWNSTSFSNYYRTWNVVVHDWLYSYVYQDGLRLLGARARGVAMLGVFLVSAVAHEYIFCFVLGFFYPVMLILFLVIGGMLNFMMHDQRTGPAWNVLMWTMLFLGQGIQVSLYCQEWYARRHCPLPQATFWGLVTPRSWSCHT
# [2] = target: T2, Sterol O-acyltransferase 1 (Homo sapiens, UniProt P35610); experiment: Inhibition of human SOAT1 mediated [14C]Cholesterol ester synthesis in CHO cells after 6 hrs in presence of [14C]Oleic acid by TLC analysis; type: cell-based
# T2 sequence (P35610 whole entry): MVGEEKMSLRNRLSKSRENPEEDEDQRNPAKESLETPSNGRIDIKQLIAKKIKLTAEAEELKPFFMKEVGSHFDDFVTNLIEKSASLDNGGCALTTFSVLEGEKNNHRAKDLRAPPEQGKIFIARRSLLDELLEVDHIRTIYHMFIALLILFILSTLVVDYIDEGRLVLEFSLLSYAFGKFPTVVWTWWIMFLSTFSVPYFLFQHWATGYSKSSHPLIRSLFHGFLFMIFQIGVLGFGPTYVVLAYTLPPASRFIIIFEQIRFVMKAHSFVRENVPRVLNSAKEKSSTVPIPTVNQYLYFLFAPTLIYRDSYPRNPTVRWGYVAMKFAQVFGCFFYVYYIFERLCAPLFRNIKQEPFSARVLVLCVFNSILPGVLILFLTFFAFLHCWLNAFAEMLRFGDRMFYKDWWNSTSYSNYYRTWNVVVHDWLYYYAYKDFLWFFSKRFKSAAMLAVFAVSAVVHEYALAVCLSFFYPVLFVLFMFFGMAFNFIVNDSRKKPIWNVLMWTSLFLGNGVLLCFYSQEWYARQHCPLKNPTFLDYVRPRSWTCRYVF
# [3] = system: CHO-K1; experiment: (§1) Inhibition of SOAT in CHOK1 microsomes; conditions: Cricetulus griseus
# [4] = as §1; parameters: species or system Cricetulus griseus; conditions: cho-k1
# [5] = target: T1, Sterol O-acyltransferase 2; experiment: Inhibition of human SOAT2-mediated [14C]Cholesterol ester synthesis in CHO cells after 6 hrs in presence of [14C]Oleic acid by TLC analysis; type: cell-based
# [6] = system: CHO-K1; experiment: Inhibition of [14C]cholesterol ester biosynthesis in CHOK1 cells using [14C]Oleic acid as substrate after 6 hrs by TLC method; type: functional, cell-based; conditions: Cricetulus griseus, CHO-K1, 6 h
# [7] = system: CHO-K1; experiment: Cytotoxicity against CHOK1 cells assessed as reduction in cell viability; type: cell-based; conditions: Cricetulus griseus
# [8] = system: CHO-K1; experiment: Effect on lipid droplet accumulation in CHOK1 cells at >100 uM preincubated with oleic acid for 12 hrs followed by replacement of fresh medium containing compounds and measured after 6 hrs by oil red O staining based confocal laser scanning microscopy; type: functional, cell-based; conditions: Cricetulus griseus
# [9] = system: CHO-K1; experiment: Inhibition of [14C]triglyceride biosynthesis in CHOK1 cells using [14C]Oleic acid as substrate after 6 hrs by TLC method; type: functional, cell-based; conditions: Cricetulus griseus, CHO-K1, 6 h
# [10] = target: T2, Sterol O-acyltransferase 1; experiment: Inhibition of human SOAT1-mediated [14C]Cholesterol ester biosynthesis in CHO microsomal fraction after 5 mins in presence of [1-14C]oleoyl-CoA by TLC analysis
SMILES,IC50 [1] [µM],IC50 [2] [µM],inhibition [3],IC50 [4] [µM],IC50 [5] [µM],IC50 [6] [µM],IC50 [7] [µM],Activity [8],IC50 [9] [µM],IC50 [10] [µM]
CC(=O)OCCC(/C=C/C=C/C#CC#C/C=C/CO)OC(=O)C=C(C)C (configuration not stated),11.5,32.8,Dose-dependent effect,29,36.2,35.4,111,inactive,> 136,4.7
C=C1CCC[C@]2(C)C[C@]3(O)OC(=O)C(C)=C3C[C@@H]12 [ATRACTYLENOLIDE III],101,,,211,187,73.5,> 195,inactive,> 195,
